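Dose response: 5 concentrations. Exposure: 48 h. Format: 96-well plates. Endpoint: linear interpolation; highest concentration if not reached. The concentration for 50% growth inhibition is given as GI50.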 Calls of active or inactive are those of the source. Rule as the data show it: active = GI50 up to about 1.1 µM and inactive = higher.
Columns and labels:
Assay in all cases: growth of human tumour cells (NCI), 48 h
SF-539 = test system: SF-539
DMS-273 = test system: DMS-273
ACHN = test system: ACHN
CAKI-1 = test system: CAKI-1
LXFL 529 = test system: LXFL 529
SNB-75 = test system: SNB-75
UO-31 = test system: UO-31
KM-20L2 = test system: KM-20L2
DMS-114 = test system: DMS-114
786-0 = test system: 786-0
K562 = test system: K562
UACC-62 = test system: UACC-62
SR = test system: SR
M19-MEL = test system: M19-MEL
RXF 393 = test system: RXF 393
COLO 205 = test system: COLO 205
TK-10 = test system: TK-10
KM12 = test system: KM12
U-251 = test system: U-251
SK-MEL-2 = test system: SK-MEL-2
HCT-116 = test system: HCT-116
SK-MEL-28 = test system: SK-MEL-28
EKVX = test system: EKVX
XF498 = test system: XF498
A498 = test system: A498
SNB-19 = test system: SNB-19
IGROV-1 = test system: IGROV-1
SNB-78 = test system: SNB-78
MOLT-4 = test system: MOLT-4
HOP-92 = test system: HOP-92
HL-60 = test system: HL-60
SK-OV-3 = test system: SK-OV-3
LOX IMVI = test system: LOX IMVI
SK-MEL-5 = test system: SK-MEL-5
OVCAR-8 = test system: OVCAR-8
HT-29 = test system: HT-29
HOP-18 = test system: HOP-18
HCC 2998 = test system: HCC 2998
NCI-H23 = test system: NCI-H23
SF-295 = test system: SF-295
NCI-H460 = test system: NCI-H460
UACC-257 = test system: UACC-257
SW-620 = test system: SW-620
A549 = test system: A549
OVCAR-5 = test system: OVCAR-5
DLD-1 = test system: DLD-1
NCI-H226 = test system: NCI-H226
CCRF-CEM = test system: CCRF-CEM
OVCAR-3 = test system: OVCAR-3
OVCAR-4 = test system: OVCAR-4
Malme-3M = test system: Malme-3M
HCT-15 = test system: HCT-15
SF-268 = test system: SF-268
SN12C = test system: SN12C
M14 = test system: M14
NCI-H522 = test system: NCI-H522
RPMI-8226 = test system: RPMI-8226
HOP-62 = test system: HOP-62
RXF 631 = test system: RXF 631

**Q.** Which GI50 (SF-539) does the source give for `COc1ccc(OC)c(CCc2ccccc2CC(=O)O)c1` here?
**A.** The GI50 was > 100 µM (inactive).

**Q.** And the GI50 (DMS-273)?
**A.** The GI50 was > 100 µM (inactive).

**Q.** And the GI50 (ACHN)?
**A.** The GI50 was > 100 µM (inactive).

**Q.** And the GI50 (CAKI-1)?
**A.** Its GI50 is > 100 µM (inactive).

**Q.** And the GI50 (LXFL 529)?
**A.** The GI50 was > 100 µM (inactive).

**Q.** What about the GI50 (SNB-75) of the same molecule?
**A.** The GI50 was 35.5 µM (inactive).

**Q.** And the GI50 (UO-31)?
**A.** The GI50 was > 100 µM (inactive).

**Q.** And the GI50 (KM-20L2)?
**A.** Its GI50 is > 100 µM (inactive).

**Q.** What about the GI50 (DMS-114) of the same molecule?
**A.** Its GI50 is > 100 µM (inactive).

**Q.** What about the GI50 (786-0) of the same molecule?
**A.** The GI50 was > 100 µM (inactive).

**Q.** And the GI50 (K562)?
**A.** The GI50 was > 100 µM (inactive).

**Q.** And the GI50 (UACC-62)?
**A.** Its GI50 is > 100 µM (inactive).

**Q.** What about the GI50 (SR) of the same molecule?
**A.** Its GI50 is > 100 µM (inactive).

**Q.** What about the GI50 (M19-MEL) of the same molecule?
**A.** Its GI50 is > 100 µM (inactive).

**Q.** And the GI50 (RXF 393)?
**A.** The GI50 was > 100 µM (inactive).

**Q.** What about the GI50 (COLO 205) of the same molecule?
**A.** Its GI50 is > 100 µM (inactive).

**Q.** What about the GI50 (TK-10) of the same molecule?
**A.** Its GI50 is > 100 µM (inactive).

**Q.** What about the GI50 (KM12) of the same molecule?
**A.** Its GI50 is > 100 µM (inactive).

**Q.** What about the GI50 (U-251) of the same molecule?
**A.** The GI50 was > 100 µM (inactive).

**Q.** And the GI50 (SK-MEL-2)?
**A.** The GI50 was > 100 µM (inactive).

**Q.** What about the GI50 (HCT-116) of the same molecule?
**A.** The GI50 was > 100 µM (inactive).

**Q.** What about the GI50 (SK-MEL-28) of the same molecule?
**A.** The GI50 was > 100 µM (inactive).

**Q.** And the GI50 (EKVX)?
**A.** Its GI50 is > 100 µM (inactive).

**Q.** And the GI50 (XF498)?
**A.** Its GI50 is > 100 µM (inactive).

**Q.** What about the GI50 (A498) of the same molecule?
**A.** The GI50 was > 100 µM (inactive).

**Q.** And the GI50 (SNB-19)?
**A.** The GI50 was > 100 µM (inactive).

**Q.** And the GI50 (IGROV-1)?
**A.** The GI50 was > 100 µM (inactive).

**Q.** What about the GI50 (SNB-78) of the same molecule?
**A.** The GI50 was > 100 µM (inactive).

**Q.** And the GI50 (MOLT-4)?
**A.** Its GI50 is > 100 µM (inactive).

**Q.** What about the GI50 (HOP-92) of the same molecule?
**A.** Its GI50 is > 100 µM (inactive).

**Q.** What about the GI50 (HL-60) of the same molecule?
**A.** The GI50 was > 100 µM (inactive).

**Q.** And the GI50 (SK-OV-3)?
**A.** Its GI50 is > 100 µM (inactive).

**Q.** What about the GI50 (LOX IMVI) of the same molecule?
**A.** The GI50 was > 100 µM (inactive).

**Q.** What about the GI50 (SK-MEL-5) of the same molecule?
**A.** The GI50 was > 100 µM (inactive).

**Q.** What about the GI50 (OVCAR-8) of the same molecule?
**A.** The GI50 was > 100 µM (inactive).

**Q.** And the GI50 (HT-29)?
**A.** Its GI50 is > 100 µM (inactive).

**Q.** And the GI50 (HOP-18)?
**A.** Its GI50 is > 100 µM (inactive).

**Q.** And the GI50 (HCC 2998)?
**A.** The GI50 was > 100 µM (inactive).

**Q.** And the GI50 (NCI-H23)?
**A.** The GI50 was > 100 µM (inactive).

**Q.** What about the GI50 (SF-295) of the same molecule?
**A.** Its GI50 is > 100 µM (inactive).

**Q.** What about the GI50 (NCI-H460) of the same molecule?
**A.** The GI50 was > 100 µM (inactive).

**Q.** What about the GI50 (UACC-257) of the same molecule?
**A.** The GI50 was > 100 µM (inactive).

**Q.** What about the GI50 (SW-620) of the same molecule?
**A.** The GI50 was > 100 µM (inactive).

**Q.** What about the GI50 (A549) of the same molecule?
**A.** The GI50 was > 100 µM (inactive).

**Q.** What about the GI50 (OVCAR-5) of the same molecule?
**A.** Its GI50 is > 100 µM (inactive).

**Q.** What about the GI50 (DLD-1) of the same molecule?
**A.** Its GI50 is > 100 µM (inactive).

**Q.** What about the GI50 (NCI-H226) of the same molecule?
**A.** Its GI50 is > 100 µM (inactive).

**Q.** And the GI50 (CCRF-CEM)?
**A.** Its GI50 is > 100 µM (inactive).

**Q.** What about the GI50 (OVCAR-3) of the same molecule?
**A.** Its GI50 is > 100 µM (inactive).

**Q.** What about the GI50 (OVCAR-4) of the same molecule?
**A.** The GI50 was > 100 µM (inactive).

**Q.** And the GI50 (Malme-3M)?
**A.** The GI50 was > 100 µM (inactive).

**Q.** What about the GI50 (HCT-15) of the same molecule?
**A.** The GI50 was over 100 µM.

**Q.** And the GI50 (SF-268)?
**A.** The GI50 was > 100 µM (inactive).

**Q.** What about the GI50 (SN12C) of the same molecule?
**A.** Its GI50 is > 100 µM (inactive).

**Q.** What about the GI50 (M14) of the same molecule?
**A.** The GI50 was > 100 µM (inactive).

**Q.** What about the GI50 (NCI-H522) of the same molecule?
**A.** Its GI50 is > 100 µM (inactive).

**Q.** And the GI50 (RPMI-8226)?
**A.** The GI50 was > 100 µM (inactive).

**Q.** Which results are given for `CCCCCNC(=O)c1c(O)[nH]c(=S)[nH]c1=O`?
**A.** GI50 (SF-539): > 100 µM (inactive); GI50 (ACHN): > 100 µM (inactive); GI50 (CAKI-1): > 100 µM (inactive); GI50 (LXFL 529): > 100 µM (inactive); GI50 (SNB-75): > 100 µM (inactive); GI50 (KM-20L2): > 100 µM (inactive); GI50 (DMS-114): 60.7 µM (inactive); GI50 (786-0): > 100 µM (inactive); GI50 (K562): > 100 µM (inactive); GI50 (UACC-62): > 100 µM (inactive); GI50 (SR): > 100 µM (inactive); GI50 (M19-MEL): > 100 µM (inactive); GI50 (COLO 205): > 100 µM (inactive); GI50 (TK-10): > 100 µM (inactive); GI50 (KM12): > 100 µM (inactive); GI50 (U-251): 66.8 µM (inactive); GI50 (SK-MEL-2): > 100 µM (inactive); GI50 (HCT-116): > 100 µM (inactive); GI50 (SK-MEL-28): > 100 µM (inactive); GI50 (A498): 96.8 µM (inactive); GI50 (SNB-19): > 100 µM (inactive); GI50 (IGROV-1): > 100 µM (inactive); GI50 (SNB-78): > 100 µM (inactive); GI50 (MOLT-4): > 100 µM (inactive); GI50 (HOP-92): > 100 µM (inactive); GI50 (HL-60): > 100 µM (inactive); GI50 (SK-OV-3): > 100 µM (inactive); GI50 (LOX IMVI): > 100 µM (inactive); GI50 (SK-MEL-5): > 100 µM (inactive); GI50 (OVCAR-8): 94.4 µM (inactive); GI50 (HOP-62): > 100 µM (inactive); GI50 (HT-29): > 100 µM (inactive); GI50 (NCI-H23): > 100 µM (inactive); GI50 (SF-295): 78.2 µM (inactive); GI50 (NCI-H460): > 100 µM (inactive); GI50 (UACC-257): > 100 µM (inactive); GI50 (SW-620): > 100 µM (inactive); GI50 (A549): 66.5 µM (inactive); GI50 (OVCAR-5): > 100 µM (inactive); GI50 (NCI-H226): > 100 µM (inactive); GI50 (CCRF-CEM): > 100 µM (inactive); GI50 (RXF 631): > 100 µM (inactive); GI50 (OVCAR-3): > 100 µM (inactive); GI50 (OVCAR-4): 41.6 µM (inactive); GI50 (Malme-3M): > 100 µM (inactive); GI50 (HCT-15): 90.6 µM; GI50 (SF-268): > 100 µM (inactive); GI50 (SN12C): > 100 µM (inactive); GI50 (M14): > 100 µM (inactive); GI50 (NCI-H522): > 100 µM (inactive); GI50 (RPMI-8226): > 100 µM (inactive)
